Numbers after ± are expanded uncertainties.
Settings: Crystal; visual observation

Row | Compound | Normal melting temperature
1 | CCCC[N+](CCCC)(CCCC)CCCC.[Cl-] [tetrabutylammonium chloride] | 69.67 ± 0.41 °C
2 | CCn1cc[n+](C)c1.[Cl-] [1-ethyl-3-methylimidazolium chloride] | 77.27 ± 0.41 °C
3 | C[N+](C)(C)CCO.O=S(=O)([N-]S(=O)(=O)C(F)(F)F)C(F)(F)F [choline bis(trifluoromethylsulfonyl)imide] | 32.50 ± 0.41 °C
4 | CCCC(=O)[O-].C[N+](C)(C)CCO [choline butanoate] | 42.83 ± 0.41 °C
5 | CC(=O)[O-].C[N+](C)(C)CCO [choline acetate] | 89.47 ± 0.41 °C
6 | CCC(=O)[O-].C[N+](C)(C)CCO [cholinium propanoate] | 9.42 ± 0.41 °C
7 | CCCCCCCCC(C[N+](C)(C)Cc1ccccc1)C(C)O.[Cl-] (stereo not given) [benzyldimethyl-2-(1-hydroxyethyl)decylammonium chloride] | 78.27 ± 0.41 °C
8 | CCCC[P+](CCCC)(CCCC)CCCC.[Cl-] [tetrabutylphosphonium chloride] | 66.31 ± 0.41 °C
9 | CCCC[N+]1(C)CCCC1.[Cl-] [1-butyl-1-methylpyrrolidinium chloride] | 199.83 ± 0.41 °C
10 | C[n+]1ccn(CCO)c1.[Cl-] [1-(2-hydroxyethyl)-3-methyl-1H-imidazolium chloride] | 85.73 ± 0.41 °C

— the NIST ThermoML archive (doi:10.1016/j.fluid.2017.03.015)
